Experimental data as given in paper PMC3989841 (Journal of nuclear medicine : official publication, Society …, 2013).
Several values for one entry are separate records, joined by “and”; a condition that tells them apart may be missing. Equal entries are not always repeated.

Key:
[1] = Percentage injected dose in urine, voided at 30 and 180 min; conditions: for Percentage of injected dose in urine: individual patients 1–8; for Percentage of injected dose in urine, mean ± SD: mean ± SD of 8 subjects
[2] = mean ± SD, subjects with chronic kidney disease
Red cell = conditions: mean ± SD of 8 subjects with chronic kidney disease
[3] = mean of subjects with reduced renal function
[4] = normal renal function; cited from earlier work
Plasma protein binding = conditions: mean ± SD of 8 subjects with chronic kidney disease
[5] = renal extraction; cited from earlier work

Structure (SMILES) | Percentage of injected dose in urine ([1]; 30 min after injection) | Percentage of injected dose in urine, mean ± SD ([1]; 30 min after injection) [%] | Percentage of injected dose in urine, mean ± SD ([1]; 180 min (3 h) after injection) | Percentage of injected dose in urine, mean ± SD ([1]; 180 min (3 h) after injection, listed as OIH) [%] | Percentage of injected dose in urine ([1]; 180 min after injection) | Relative uptake in the left kidney [2] | RBC (%) (red cell uptake), mean ± SD (Red cell) | RBC (%) (red cell uptake), mean ± SD (Red cell; listed as OIH) | Mean plasma clearance (not normalised to body surface) [3] [mL/min] | Normal plasma clearance [4] [mL/min] | PPB (%), mean ± SD (Plasma protein binding) [%] | Extraction fraction [5]
O=C(O)CNC(=O)c1ccccc1[131I] [^131I-OIH, ^131I-o-iodohippuran] | 46% and 47% and 24% and 38% and 50% and 42% and 41% and 33% | 40 ± 8 | 78% ± 11% | 78 ± 11 | 81% and 59% and 76% and 98% and 75% and 77% and 79% | 55.5% ± 8.1% | 16% ± 2% | 16 ± 2 | 198 | 472 to 530 | 71 ± 5 | 
O=C([O-])CN(CCN(CC(=O)[O-])CC(=O)[O-])CCN(CC(=O)[O-])CC(=O)[O-].[99Tc+4] [^99mTc-DTPA, ^99mTc-diethyltriaminepentaacetic acid] |  |  |  |  |  |  |  |  |  |  |  | approximately 20%
